25 molecules from ChEMBL document CHEMBL3046244, “Efficient synthesis of piperazine-2,6-dione and 4-(1H-indole-2-carbonyl)piperazine-2,6-dione derivatives and their evaluation for anticancer activity” (2013) can be followed below.

What all share (format): functional
One assay concerns NCI-H522. Put plainly: Growth inhibition of Homo sapiens (human) NCI-H522 cells at 10 uM after 48 hr by SRB assay. The following applies: NCI-H522, 48 h, read-out: GI. Background: Sulforhodamine B stains cellular protein and so reports cell mass.
In a further assay the test system is HepG2. Nature of the assay: Growth inhibition of Homo sapiens (human) HepG2 cells at 10 uM after 48 hr by SRB assay. The following applies: HepG2, 48 h, read-out: GI.
For a further assay, the system named is T47D. Put plainly: Growth inhibition of Homo sapiens (human) T47D cells at 10 uM after 48 hr by SRB assay. The following applies: read-out: GI.
In a further assay the test system is PA-1. Nature of the assay: Growth inhibition of Homo sapiens (human) PA1 cells at 10 uM after 48 hr by SRB assay. The following applies: PA-1, 48 h, read-out: GI.
The next assay deals with HCT-15. Nature of the assay: Growth inhibition of Homo sapiens (human) HCT15 cells at 10 uM after 48 hr by SRB assay. Conditions: HCT-15, 48 h, read-out: GI.

For `O=C(c1cc2ccccc2[nH]1)N1CC(=O)N(C2CCCCC2)C(=O)C1`, the inhibition of growth at 10 µM stood at 6% in the assay on NCI-H522; 25% in the assay on HepG2; 7% in the assay on T47D; 40% in the assay on PA-1; 30% in the assay with HCT-15.

`O=C(c1cc2ccccc2[nH]1)N1CC(=O)N(CCCn2ccnc2)C(=O)C1`: the inhibition of growth at 10 µM in the assay with NCI-H522 turned out to be 0%; in the assay with HepG2, 34%; in the assay with T47D it was 0%; in the assay on PA-1, 17%; in the assay with HCT-15, 7%.

On to `O=C(c1cc2ccccc2[nH]1)N1CC(=O)N(Cc2ccccn2)C(=O)C1`, for which the inhibition of growth at 10 µM came out at 19% in the assay on NCI-H522; 34% with HepG2; 20% with T47D; 23% in the assay with PA-1; 2% in the assay on HCT-15.

For the molecule `O=C(c1cc2ccccc2[nH]1)N1CC(=O)N(Cc2cccnc2)C(=O)C1`, the inhibition of growth at 10 µM in the assay on NCI-H522 turned out to be 4%; in the assay with HepG2, 17%; in the assay on T47D it was 12%; with PA-1 it was 13%; in the assay on HCT-15, 14%.

For the molecule `O=C(c1cc2ccccc2[nH]1)N1CC(=O)N(Cc2ccncc2)C(=O)C1`, the inhibition of growth at 10 µM with NCI-H522 is 5%; with HepG2, 20%; in the assay with T47D it was 21%; with PA-1, 42%; with HCT-15 it was 38%.

As to `O=C(c1cc2ccccc2[nH]1)N1CC(=O)N(CCN2CCOCC2)C(=O)C1`, the inhibition of growth at 10 µM in the assay with NCI-H522 turned out to be 8%; in the assay with HepG2, 3%; in the assay on T47D it was 16%; with PA-1, 18%; in the assay on HCT-15 it was 7%.

`O=C(c1cc2ccccc2[nH]1)N1CC(=O)N(Cc2cccs2)C(=O)C1`: the inhibition of growth at 10 µM amounted to 0% in the assay on NCI-H522; 45% with HepG2; 6% with T47D; 24% in the assay with PA-1; 15% in the assay with HCT-15.

As for `O=C(c1cc2ccccc2[nH]1)N1CC(=O)N(CCc2cccs2)C(=O)C1`, the inhibition of growth at 10 µM in the assay on NCI-H522 was 14%; in the assay on HepG2, 19%; in the assay with T47D it was 9%; with PA-1, 11%; in the assay on HCT-15 it was 4%.

Take `O=C(c1cc2ccccc2[nH]1)N1CC(=O)N(Cc2ccco2)C(=O)C1`: the inhibition of growth at 10 µM was found to be 15% in the assay with NCI-H522; 36% with HepG2; 21% with T47D; 23% in the assay with PA-1; 24% in the assay with HCT-15.

Turning to `O=C(c1cc2ccccc2[nH]1)N1CC(=O)N(CCN2CCCC2)C(=O)C1`, the inhibition of growth at 10 µM in the assay with NCI-H522 was 31%; with HepG2, 30%; in the assay with T47D, 16%; in the assay with PA-1, 29%; in the assay on HCT-15, 17%.

For `O=C1CCCN1CCCN1C(=O)CN(C(=O)c2cc3ccccc3[nH]2)CC1=O`, the inhibition of growth at 10 µM with NCI-H522 is 8%; in the assay with HepG2 it was 11%; with T47D, 14%; with PA-1, 8%; in the assay with HCT-15 it was 27%.

Take `O=C1CNCC(=O)N1C1CCCCC1`: the inhibition of growth at 10 µM was determined as 11% in the assay with NCI-H522; 38% in the assay with HepG2; 15% in the assay on T47D; 24% in the assay with PA-1; 7% in the assay with HCT-15.

Regarding `O=C1CNCC(=O)N1CCCn1ccnc1`, the inhibition of growth at 10 µM worked out at 8% in the assay on NCI-H522; 13% with HepG2; 8% with T47D; 23% with PA-1; 32% in the assay with HCT-15.

In the case of `O=C1CNCC(=O)N1Cc1ccccn1`, the inhibition of growth at 10 µM with NCI-H522 was found to be 8%; in the assay with HepG2 it was 31%; in the assay on T47D it was 16%; with PA-1, 17%; in the assay with HCT-15 it was 1%.

On to `O=C1CNCC(=O)N1Cc1cccnc1`, for which the inhibition of growth at 10 µM in the assay with NCI-H522 was determined as 4%; in the assay on HepG2, 21%; in the assay on T47D it was 8%; with PA-1, 20%; in the assay with HCT-15, 20%.

Regarding `O=C1CNCC(=O)N1Cc1ccncc1`, the inhibition of growth at 10 µM in the assay with NCI-H522 worked out at 8%; in the assay on HepG2 it was 25%; in the assay with T47D, 4%; with PA-1, 27%; with HCT-15, 33%.

As to `O=C1CNCC(=O)N1CCN1CCOCC1`, the inhibition of growth at 10 µM was found to be 9% with NCI-H522; 38% with HepG2; 1% with T47D; 37% in the assay on PA-1; 4% with HCT-15.

`O=C1CNCC(=O)N1Cc1cccs1`: the inhibition of growth at 10 µM in the assay with NCI-H522 came to 15%; in the assay with HepG2, 29%; in the assay on T47D it was 8%; in the assay with PA-1 it was 18%; with HCT-15 it was 4%.

On to `O=C1CNCC(=O)N1CCc1cccs1`, for which the inhibition of growth at 10 µM in the assay on NCI-H522 worked out at 21%; in the assay with HepG2, 24%; in the assay on T47D, 16%; in the assay on PA-1, 15%; with HCT-15, 25%.

For the molecule `O=C1CNCC(=O)N1Cc1ccco1`, the inhibition of growth at 10 µM with NCI-H522 was 7%; in the assay with HepG2, 21%; with T47D, 4%; in the assay with PA-1, 26%; with HCT-15, 30%.

As for `O=C1CNCC(=O)N1CCN1CCCC1`, the inhibition of growth at 10 µM stood at 0% in the assay with NCI-H522; 18% in the assay on HepG2; 1% with T47D; 26% with PA-1; 49% in the assay on HCT-15.

`O=C1CCCN1CCCN1C(=O)CNCC1=O`: the inhibition of growth at 10 µM with NCI-H522 was determined as 21%; in the assay on HepG2, 40%; in the assay on T47D, 21%; with PA-1, 25%; in the assay with HCT-15, 19%.

Take `C[C@@H]1C[C@@H]([C@H](O)CC2CC(=O)NC(=O)C2)C(=O)[C@@H](C)C1` [CYCLOHEXIMIDE]: the inhibition of growth at 10 µM in the assay with NCI-H522 was 15%; with HepG2, 26%; with T47D, 11%; in the assay with PA-1, 34%; in the assay on HCT-15 it was 16%.

In the case of `O=P1(N(CCCl)CCCl)NCCCO1` (stereo not given) [CYCLOPHOSPHAMIDE ANHYDROUS], the inhibition of growth at 10 µM with NCI-H522 worked out at 11%; in the assay with HepG2, 18%; with T47D it was 26%; with PA-1, 12%; in the assay on HCT-15 it was 12%.

`O=c1[nH]cc(F)c(=O)[nH]1` [FLUOROURACIL]: the inhibition of growth at 10 µM was 24% with NCI-H522; 18% in the assay on HepG2; 15% in the assay on T47D; 22% in the assay with PA-1; 19% in the assay on HCT-15.
